Article PMC7807415 (Toxicology letters, 2020)
Where “and” joins values, the source holds several entries; their conditions need not be identical. Equal values may be shown once. One block for each molecule: values may come before it.

Key:
[1] = test system: P450 activity in human liver microsomes (HLM150); assay: Inhibitor phenotyping of bioactivation in human liver microsomes; assay type: in vitro ADME
[2] = FAERS search for hepatobiliary disorder cases involving meloxicam; parameters: species or system human
[3] = BJC HealthCare electronic health record cohort: DILI hospitalizations; parameters: species or system human; settings: of 2800 DILI hospitalizations; 4570 hospitalizations prescribed meloxicam
CYP1A2 = biological target: T1, CYP1A2 (Homo sapiens, UniProt P05177); settings: pH 7.4
T1 sequence (P05177 1-516): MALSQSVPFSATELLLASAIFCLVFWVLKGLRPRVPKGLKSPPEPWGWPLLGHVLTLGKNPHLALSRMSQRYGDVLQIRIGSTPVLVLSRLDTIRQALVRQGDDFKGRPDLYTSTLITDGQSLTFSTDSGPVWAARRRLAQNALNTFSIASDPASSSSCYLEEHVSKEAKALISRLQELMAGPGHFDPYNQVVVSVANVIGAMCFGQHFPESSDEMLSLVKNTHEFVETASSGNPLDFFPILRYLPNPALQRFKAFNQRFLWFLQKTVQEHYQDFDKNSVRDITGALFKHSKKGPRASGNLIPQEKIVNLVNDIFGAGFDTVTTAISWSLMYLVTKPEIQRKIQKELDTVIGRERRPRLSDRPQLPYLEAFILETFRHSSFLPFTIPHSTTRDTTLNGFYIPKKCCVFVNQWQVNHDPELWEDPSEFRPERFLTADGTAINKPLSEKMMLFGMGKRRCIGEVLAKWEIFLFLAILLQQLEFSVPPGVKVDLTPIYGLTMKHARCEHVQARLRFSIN

[4] = patients; ref Gschwend et al., 2007; cited from earlier work
CYP2C19 = CYP2C19 (Homo sapiens, UniProt P33261); settings: 400 µM sudoxicam, 100 nM CYP2C19, 30 min
CYP3A4 = CYP3A4 (Homo sapiens, UniProt P08684); settings: 400 µM sudoxicam, 100 nM CYP3A4, 30 min
Sequence of CYP3A4 (P08684 whole entry): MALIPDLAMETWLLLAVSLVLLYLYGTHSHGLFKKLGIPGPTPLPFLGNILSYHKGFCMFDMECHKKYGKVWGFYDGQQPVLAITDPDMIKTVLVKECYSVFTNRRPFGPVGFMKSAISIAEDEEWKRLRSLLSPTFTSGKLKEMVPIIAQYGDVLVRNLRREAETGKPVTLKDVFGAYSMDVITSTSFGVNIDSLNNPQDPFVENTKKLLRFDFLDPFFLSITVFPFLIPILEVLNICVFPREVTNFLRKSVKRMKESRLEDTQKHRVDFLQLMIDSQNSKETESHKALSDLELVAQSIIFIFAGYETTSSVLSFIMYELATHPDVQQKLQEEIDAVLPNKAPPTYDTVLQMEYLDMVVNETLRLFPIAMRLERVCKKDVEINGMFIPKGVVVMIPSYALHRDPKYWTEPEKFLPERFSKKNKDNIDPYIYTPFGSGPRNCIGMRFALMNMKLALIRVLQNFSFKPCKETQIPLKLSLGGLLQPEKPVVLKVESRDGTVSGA

[5] = substrate: Cc1cnc(NC(=O)C2=C(O)c3ccccc3S(=O)(=O)N2C)s1; assay: cells, lysate or membranes named; settings: other: meloxicam -> methylglyoxal (bioactivation), recombinant CYP 1A2; pH 7.4
[6] = substrate: CN1C(C(=O)Nc2nccs2)=C(O)c2ccccc2S1(=O)=O; assay: cells, lysate or membranes named; settings: other: sudoxicam -> glyoxal (bioactivation), pH 7.4

blocked methylglyoxal formation (meloxicam bioactivation) ([1]; 1 mM ABT, 10 µM meloxicam, HLM150 0.5 mg/mL, 40 min): 85%
Molecule: Nn1nnc2ccccc21 [ABT, 1-aminobenzotriazole]

Molecule: O=c1cc(-c2ccccc2)oc2c1ccc1ccccc12 [ANF, α-naphthoflavone]
effect on glyoxal formation (sudoxicam bioactivation) ([1]; 16 µM ANF (CYP1A2 inhibitor), 10 µM sudoxicam, HLM150): increased significantly the extent of the reaction

share of total applicable hepatobiliary cases with concomitant drug ([2]; human): 6%
Molecule: Cc1c(OCC(F)(F)F)ccnc1C[S+]([O-])c1nc2ccccc2[nH]1 (stereo not drawn) [lansoprazole]

Molecule: Cc1cnc(NC(=O)C2=C(O)c3ccccc3S(=O)(=O)N2C)s1 [meloxicam]
DILI hospitalizations that had been prescribed meloxicam [3]: 8 hospitalizations | Scaled contribution of CYP1A2 (Vmax/Km) (CYP1A2): 0.457 pmol/min/mg protein/µM substrate | Vmax (CYP1A2): 1000 ± 53 pmol/min/nmol protein | methylglyoxal formation in recombinant P450 screen (CYP1A2; recombinant enzyme, 30 min, 400 µM): only recombinant P450 to form detectable levels of methylglyoxal | Percent contribution of CYP1A2 (CYP1A2; recombinant enzyme): 100% | hepatobiliary disorder cases resulting in death ([2]; FAERS, 1998 to 2020): 39 cases | serious cases of hepatobiliary disorders ([2]; human): 308 cases | total cases of hepatobiliary disorders ([2]; human): 326 cases | maximum plasma levels [4]: 3.2 µM

share of total applicable hepatobiliary cases with concomitant drug ([2]; human): 6%
Molecule: COc1ccc2[nH]c([S+]([O-])Cc3ncc(C)c(OC)c3C)nc2c1 (stereo not drawn) [omeprazole]

Molecule: CN1C(C(=O)Nc2nccs2)=C(O)c2ccccc2S1(=O)=O [sudoxicam, N-(2-thiazolyl)-4-hydroxy-2-methyl-2H-1,2-benzothiazine-3-carboxamide 1,1-dioxide]
glyoxal formation in recombinant P450 screen (CYP2C19): capable of catalyzing the reaction | glyoxal formation in recombinant P450 screen (CYP3A4): capable of catalyzing the reaction

B1: CYP1A2 (Homo sapiens) (protein)
chain: T1 sequence (P05177 1-516)
Km [5]: 40 ± 7.5 µM

B2: CYP2C8 (Homo sapiens) (protein)
chain: MEPFVVLVLCLSFMLLFSLWRQSCRRRKLPPGPTPLPIIGNMLQIDVKDICKSFTNFSKVYGPVFTVYFGMNPIVVFHGYEAVKEALIDNGEEFSGRGNSPISQRITKGLGIISSNGKRWKEIRRFSLTTLRNFGMGKRSIEDRVQEEAHCLVEELRKTKASPCDPTFILGCAPCNVICSVVFQKRFDYKDQNFLTLMKRFNENFRILNSPWIQVCNNFPLLIDCFPGTHNKVLKNVALTRSYIREKVKEHQASLDVNNPRDFIDCFLIKMEQEKDNQKSEFNIENLVGTVADLFVAGTETTSTTLRYGLLLLLKHPEVTAKVQEEIDHVIGRHRSPCMQDRSHMPYTDAVVHEIQRYSDLVPTGVPHAVTTDTKFRNYLIPKGTTIMALLTSVLHDDKEFPNPNIFDPGHFLDKNGNFKKSDYFMPFSAGKRICAGEGLARMELFLFLTTILQNFNLKSVDDLKNLNTTAVTKGIVSLPPSYQICFIPV
Km ([6]; recombinant CYP 2C8): 5 µM and 4.6 ± 0.89 µM

B3: CYP2C19 (Homo sapiens) (protein)
chain: MDPFVVLVLCLSCLLLLSIWRQSSGRGKLPPGPTPLPVIGNILQIDIKDVSKSLTNLSKIYGPVFTLYFGLERMVVLHGYEVVKEALIDLGEEFSGRGHFPLAERANRGFGIVFSNGKRWKEIRRFSLMTLRNFGMGKRSIEDRVQEEARCLVEELRKTKASPCDPTFILGCAPCNVICSIIFQKRFDYKDQQFLNLMEKLNENIRIVSTPWIQICNNFPTIIDYFPGTHNKLLKNLAFMESDILEKVKEHQESMDINNPRDFIDCFLIKMEKEKQNQQSEFTIENLVITAADLLGAGTETTSTTLRYALLLLLKHPEVTAKVQEEIERVIGRNRSPCMQDRGHMPYTDAVVHEVQRYIDLIPTSLPHAVTCDVKFRNYLIPKGTTILTSLTSVLHDNKEFPNPEMFDPRHFLDEGGNFKKSNYFMPFSAGKRICVGEGLARMELFLFLTFILQNFNLKSLIDPKDLDTTPVVNGFASVPPFYQLCFIPV
Km ([6]; recombinant CYP 2C19): 23 ± 5.2 µM
